From patent publication US7273882B2, “Aminoacetamide acyl guanidines as β-secretase inhibitors” (priority 2006, dated 2007)

target: T1, BACE1 enzyme (Homo sapiens, UniProt P56817); experiment: Radioligand displacement (binding) assay with radiolabeled BACE inhibitor on HEK293-9B.A1 cell homogenate; settings: not given
T1 construct: was derived from HEK293 cells; endogenous in cells; washed 48,000 x g pellet of the cell homogenate
Excerpt: There are a number of methods by which inhibitors of the BACE enzyme can be identified experimentally. The enzyme can be obtained from membrane samples from natural tissues or cultured cells or can be expressed recombinantly in a host cell by well known methods of molecular biology. The whole enzyme or a portion thereof can be expressed, for example, in bacterial, insect or mammalian cells to obtain a catalytically active enzyme species. The enzymatic activity and/or ligand binding capability of the enzyme can be assessed within these membrane samples, or the enzyme can be purified to varying extents. As an illustrative example, the nucleic acid sequence encoding the pro and catalytic domains of human BACE can be appended on the 5′ end with an untranslated and signal sequence from the gene for acetylcholinesterase, and on the 3′ end with a sequence encoding a poly-histidine tag. This cDNA can then be expressed in Drosophila melanogaster S2 cells in which the signal and pro sequences of the transcribed/translated protein are removed by cellular proteases and the catalytic domain, appended by a C-terminal poly-histidine tag, is secreted out into the cellular medium. The enzyme can then be purified from the culture medium by nickel affinity chromatography by methods well known to those trained in the art [Mallender, W. et al., (2001) “Characterization of recombinant, soluble beta-secretase from an insect cell expression system.” Mol. Pharmacol. 59: 619-626]. Similar strategies for expressing and purifying various forms of BACE in bacterial, mammalian and other cell types would be known to one skilled in the art., A preferred method for determining the potency of a test compound in binding to the BACE enzyme is by monitoring the displacement of a suitable radioligand.
Radioligand displacement assays with a radiolabeled BACE inhibitor (WO 2004 013098, compound 3, where the methoxy group is substituted for C(^3H)3) were carried out using standard methods (Keen, M. (1999) in Receptor Binding Techniques (Walker, J. M. ed) p. 106 Humana Press, Totowa, N.J.). The HEK293-9B.A1 cell line, which overexpresses the BACE1 enzyme, was derived from HEK293 cells (Simmons, N. L. (1990) A cultured human renal epithelioid cell line responsive to vasoactive intestinal peptide. Exp. Physiol. 75:309-19.) by RAGE™ (Harrington, J. J. et al. (2001) Creation of genome-wide protein expression libraries using random activation of gene expression. Nat. Biotechnol. 19:440-5.; U.S. Pat. Nos. 6,410,266 and 6,361,972). T225 flask cultures of HEK293-9B.A1 were grown to 80% confluency in DMEM supplemented with 2 mM L-glutamine, 10 μg/ml penicillin, 10 μg/ml streptomycin, 3 μg/ml puromycin, 100 nM methotrexate, and 10% fetal bovine serum (Invitrogen, Carlsbad, Calif.), harvested, and resuspended at 2×10^8 cells per 10 ml of lysis buffer consisting of 50 mM HEPES pH 7.0 containing a protease inhibitor cocktail of AEBSF 104 μM, aprotinin 80 nM, leupeptin 2 μM, bestatin 4 μM, pepstatin A 1.5 μM, and E-64 1.4 μM (0.1% of protease inhibitor cocktail P8340, Sigma-Aldrich, St. Louis, Mo.) at 4° C. The resuspended cells were homogenized using a Polytron (Brinkman, Westbury, N.Y.) at setting 6 for 10 sec., then centrifuged at 48,000×g for 10 min. The resulting pellet was washed by repeating the resuspension, homogenization and centrifugation steps. The final pellet was resuspended in buffer at 4° C. to yield a total protein concentration of 5 mg/ml, then aliquots were frozen in liquid nitrogen for further storage at −70° C. Immediately before carrying out a binding assay, an aliquot of cell homogenate was thawed and diluted to a concentration of 100 μg/ml in assay buffer consisting of 50 mM HEPES pH 5.0 and 0.1% CHAPSO. […]

T1 sequence (P56817 46-501): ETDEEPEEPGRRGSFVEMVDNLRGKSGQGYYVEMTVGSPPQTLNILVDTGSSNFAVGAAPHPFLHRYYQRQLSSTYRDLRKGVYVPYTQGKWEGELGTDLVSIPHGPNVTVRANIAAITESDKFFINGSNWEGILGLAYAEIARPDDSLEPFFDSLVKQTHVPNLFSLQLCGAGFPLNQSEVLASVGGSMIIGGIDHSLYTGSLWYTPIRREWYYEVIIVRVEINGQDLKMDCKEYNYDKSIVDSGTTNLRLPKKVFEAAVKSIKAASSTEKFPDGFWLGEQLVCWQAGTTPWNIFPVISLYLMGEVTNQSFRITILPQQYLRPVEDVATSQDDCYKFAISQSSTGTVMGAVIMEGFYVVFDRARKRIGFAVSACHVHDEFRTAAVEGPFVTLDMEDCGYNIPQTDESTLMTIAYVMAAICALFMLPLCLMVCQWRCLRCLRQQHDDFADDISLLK

Q: For COc1ccc(-c2nsc(C)c2C(=O)/N=C(\N)NCc2cc(Cl)cc(CNC(=O)/C=C/c3ccccc3)c2)cc1 [Example 237, N-(((E)-3-chloro-5-(cinnamamidomethyl)benzylamino)(amino)methylene)-3-(4-methoxyphenyl)-5-methylisothiazole-4-carboxamide], which IC50 is on record?
A: < 100 nM

Q: COC/C=C/c1cc(Cl)cc(CN/C(N)=N/C(=O)c2c(-c3ccc(OC)cc3)noc2C)c1 [Example 152, N-((3-chloro-5-((E)-3-methoxyprop-1-enyl)benzylamino)(amino)methylene)-3-(4-methoxyphenyl)-5-methylisoxazole-4-carboxamide] was tested. Which IC50 did it give?
A: 100 to 1000 nM

Q: COC/C=C/c1cc(CN/C(N)=N/C(=O)c2c(-c3ccc(OC)cc3)nsc2C)cc(Cl)c1N [Example 154, N-((4-amino-3-chloro-5-((E)-3-methoxyprop-1-enyl)benzylamino) (amino)methylene)-3-(4-methoxyphenyl)-5-methylisothiazole-4-carboxamide] was tested. Which IC50 did it give?
A: < 100 nM

Q: COc1ccc(-c2nsc(C)c2C(=O)/N=C(/N)NCc2cc(Cl)c(N)c(Br)c2)cc1 [Example 150, N-((3-Bromo-4-amino-5-chlorobenzylamino)(amino)methylene)-3-(4-methoxyphenyl)-5-methylisothiazole-4-carboxamide] was tested. Which IC50 did it give?
A: < 100 nM

Q: For COc1ccc(-c2nsc(C)c2C(=O)NC(N)=NCc2cc(C)c(NC(C)=O)c(Cl)c2)cc1 [Example 144], which IC50 is on record?
A: < 100 nM

Q: COc1ccc(-c2noc(C)c2C(=O)/N=C(/N)NCc2cc(Cl)c(N)c(Br)c2)cc1 [Example 148, N-((3-Bromo-4-amino-5-chlorobenzylamino)(amino)methylene)-3-(4-methoxyphenyl)-5-methylisoxazole-4-carboxamide] was tested. Which IC50 did it give?
A: 100 to 1000 nM

Q: COC/C=C/c1cc(CN/C(N)=N/C(=O)c2c(-c3ccc(OC)cc3)noc2C)cc(Cl)c1N [Example 153, N-((4-amino-3-chloro-5-((E)-3-methoxyprop-1-enyl)benzylamino) (amino)methylene)-3-(4-methoxyphenyl)-5-methylisoxazole-4-carboxamide] was tested. Which IC50 did it give?
A: < 100 nM

Q: How did the IC50 turn out when COc1ccc(-c2nsc(C)c2C(=O)/N=C(\N)NCc2cc(Cl)c(NC(C)=O)c(Cl)c2)cc1 [Example 279, (E)-N-((4-acetamido-3,5-dichlorobenzylamino)(amino)methylene)-3-(4-methoxyphenyl)-5-methylisothiazole-4-carboxamide] was run?
A: < 100 nM

Q: With CCOC(=O)NCc1cc(Cl)cc(CN/C(N)=N/C(=O)c2c(-c3ccc(OC)cc3)noc2C)c1 [Example 203] as the compound, how does the IC50 read?
A: 100 to 1000 nM

Q: How did the IC50 turn out when COc1ccc(-c2noc(C)c2C(=O)N=C(N)NCc2cc(Cl)cc(C=CCCO)c2)cc1 [Example 168] was run?
A: 100 to 1000 nM

Q: Cc1noc(-c2ccccc2)c1C(=O)/N=C(\N)NCc1cc(Cl)c(N)c(Cl)c1 [Example 22] was tested. Which IC50 did it give?
A: 100 to 1000 nM

Q: Which IC50 does the source give for COc1ccc(-c2nsc(C)c2C(=O)/N=C(/N)NCc2cc(Cl)c(N)c(Cl)c2)cc1 [Example 149, N-((4-amino-3,5-dichlorobenzylamino)(amino)methylene)-3-(4-methoxyphenyl)-5-methylisothiazole-4-carboxamide] here?
A: < 100 nM

Q: With COc1ccc(-c2n[nH]c(C)c2C(=O)N=C(N)NCc2cc(Cl)c(N)c(Cl)c2)cc1 [Example 132] as the compound, how does the IC50 read?
A: 100 to 1000 nM

same assay, conditions: radioligand displacement, HEK293-9B.A1 cell homogenate overexpressing BACE1; read-out: Activity Rating (activity based on IC50 values)

Q: COc1ccc(-c2nsc(C)c2C(=O)/N=C(\N)NCc2cc(Cl)c(NC(=O)CN(C)C)c(Cl)c2)cc1 [Example 327] was tested. Which IC50 did it give?
A: < 100 nM

Q: Which IC50 does the source give for COc1ccc(-c2noc(C)c2C(=O)/N=C(\N)NCc2cc(Cl)c(NC(=O)CN(C)C)c(Cl)c2)cc1 [Example 280, (E)-N-((3,5-dichloro-4-(2-(dimethylamino)acetamido)benzylamino)(amino)methylene)-3-(4-methoxyphenyl)-5-methylisoxazole-4-carboxamide] here?
A: < 100 nM
